From ChEMBL document CHEMBL1201862, “PubChem BioAssay data set” (2004)
Active and inactive are the calls of the source.

Columns and labels:
Beta-galactosidase = Beta-galactosidase (Escherichia coli, UniProt Q8VNN2); test: Dose response counterscreen for EBI2 assay utilizing the enzyme, b-galactosidase.; type: functional
[1] = target: T1, Adenosylmethionine-8-amino-7-oxononanoate aminotransferase (Mycobacterium tuberculosis, UniProt P9WQ81); test: Mycobacterium tuberculosis BioA enzyme inhibitor Measured in Biochemical System Using Plate Reader - 2163-02_Inhibitor_Dose_CherryPick_Activity.; type: functional, Mycobacterium tuberculosis UT205
T1 sequence (P9WQ81 whole entry): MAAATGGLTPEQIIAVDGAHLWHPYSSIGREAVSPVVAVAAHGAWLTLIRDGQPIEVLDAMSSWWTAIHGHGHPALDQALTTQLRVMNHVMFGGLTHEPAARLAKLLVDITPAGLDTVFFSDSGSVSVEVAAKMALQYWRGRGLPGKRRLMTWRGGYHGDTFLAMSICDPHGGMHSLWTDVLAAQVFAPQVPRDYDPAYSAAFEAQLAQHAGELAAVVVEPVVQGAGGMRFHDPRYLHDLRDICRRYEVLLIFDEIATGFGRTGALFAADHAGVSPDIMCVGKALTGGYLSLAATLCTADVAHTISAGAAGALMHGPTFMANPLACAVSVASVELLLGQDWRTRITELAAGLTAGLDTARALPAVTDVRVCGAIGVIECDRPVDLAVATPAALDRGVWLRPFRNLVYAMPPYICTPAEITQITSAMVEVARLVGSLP

Cytochrome P450 2C9 = Cytochrome P450 2C9 (Homo sapiens, UniProt P11712)
Sequence of Cytochrome P450 2C9 (P11712 whole entry): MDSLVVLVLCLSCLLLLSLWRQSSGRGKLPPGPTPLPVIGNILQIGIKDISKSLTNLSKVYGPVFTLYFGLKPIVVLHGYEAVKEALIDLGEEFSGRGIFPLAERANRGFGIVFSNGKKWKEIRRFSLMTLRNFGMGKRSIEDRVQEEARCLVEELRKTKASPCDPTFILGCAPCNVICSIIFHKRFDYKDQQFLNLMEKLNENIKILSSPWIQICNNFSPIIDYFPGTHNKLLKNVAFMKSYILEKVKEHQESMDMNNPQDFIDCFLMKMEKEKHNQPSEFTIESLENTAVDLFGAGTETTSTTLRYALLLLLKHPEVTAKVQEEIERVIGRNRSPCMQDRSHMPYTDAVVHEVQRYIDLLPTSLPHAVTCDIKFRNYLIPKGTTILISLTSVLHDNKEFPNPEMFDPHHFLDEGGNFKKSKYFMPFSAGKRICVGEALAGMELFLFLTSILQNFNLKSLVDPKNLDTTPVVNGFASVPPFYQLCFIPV

[2] = target: Peroxisome proliferator-activated receptor gamma/Nuclear receptor coactivator 3 (Homo sapiens, UniProt P37231); type: functional;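 further: agonist potency for raising coactivator recruitment to the receptor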
Sequence of Peroxisome proliferator-activated receptor gamma/Nuclear receptor coactivator 3 (P37231 whole entry): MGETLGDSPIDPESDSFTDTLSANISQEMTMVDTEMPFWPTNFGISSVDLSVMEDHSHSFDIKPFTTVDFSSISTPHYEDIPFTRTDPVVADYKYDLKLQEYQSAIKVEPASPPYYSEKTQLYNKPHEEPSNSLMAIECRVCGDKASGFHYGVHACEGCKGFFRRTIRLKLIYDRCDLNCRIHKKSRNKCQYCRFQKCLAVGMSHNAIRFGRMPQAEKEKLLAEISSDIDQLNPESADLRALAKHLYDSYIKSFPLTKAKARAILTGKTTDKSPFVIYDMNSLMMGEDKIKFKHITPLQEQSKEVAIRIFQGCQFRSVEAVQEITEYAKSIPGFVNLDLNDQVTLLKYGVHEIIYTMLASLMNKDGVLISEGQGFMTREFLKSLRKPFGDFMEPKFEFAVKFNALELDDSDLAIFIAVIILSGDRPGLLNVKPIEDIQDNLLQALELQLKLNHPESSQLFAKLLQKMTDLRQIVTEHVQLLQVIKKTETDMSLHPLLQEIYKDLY
Sequence of Peroxisome proliferator-activated receptor gamma/Nuclear receptor coactivator 3 (Q9Y6Q9 whole entry, further chain): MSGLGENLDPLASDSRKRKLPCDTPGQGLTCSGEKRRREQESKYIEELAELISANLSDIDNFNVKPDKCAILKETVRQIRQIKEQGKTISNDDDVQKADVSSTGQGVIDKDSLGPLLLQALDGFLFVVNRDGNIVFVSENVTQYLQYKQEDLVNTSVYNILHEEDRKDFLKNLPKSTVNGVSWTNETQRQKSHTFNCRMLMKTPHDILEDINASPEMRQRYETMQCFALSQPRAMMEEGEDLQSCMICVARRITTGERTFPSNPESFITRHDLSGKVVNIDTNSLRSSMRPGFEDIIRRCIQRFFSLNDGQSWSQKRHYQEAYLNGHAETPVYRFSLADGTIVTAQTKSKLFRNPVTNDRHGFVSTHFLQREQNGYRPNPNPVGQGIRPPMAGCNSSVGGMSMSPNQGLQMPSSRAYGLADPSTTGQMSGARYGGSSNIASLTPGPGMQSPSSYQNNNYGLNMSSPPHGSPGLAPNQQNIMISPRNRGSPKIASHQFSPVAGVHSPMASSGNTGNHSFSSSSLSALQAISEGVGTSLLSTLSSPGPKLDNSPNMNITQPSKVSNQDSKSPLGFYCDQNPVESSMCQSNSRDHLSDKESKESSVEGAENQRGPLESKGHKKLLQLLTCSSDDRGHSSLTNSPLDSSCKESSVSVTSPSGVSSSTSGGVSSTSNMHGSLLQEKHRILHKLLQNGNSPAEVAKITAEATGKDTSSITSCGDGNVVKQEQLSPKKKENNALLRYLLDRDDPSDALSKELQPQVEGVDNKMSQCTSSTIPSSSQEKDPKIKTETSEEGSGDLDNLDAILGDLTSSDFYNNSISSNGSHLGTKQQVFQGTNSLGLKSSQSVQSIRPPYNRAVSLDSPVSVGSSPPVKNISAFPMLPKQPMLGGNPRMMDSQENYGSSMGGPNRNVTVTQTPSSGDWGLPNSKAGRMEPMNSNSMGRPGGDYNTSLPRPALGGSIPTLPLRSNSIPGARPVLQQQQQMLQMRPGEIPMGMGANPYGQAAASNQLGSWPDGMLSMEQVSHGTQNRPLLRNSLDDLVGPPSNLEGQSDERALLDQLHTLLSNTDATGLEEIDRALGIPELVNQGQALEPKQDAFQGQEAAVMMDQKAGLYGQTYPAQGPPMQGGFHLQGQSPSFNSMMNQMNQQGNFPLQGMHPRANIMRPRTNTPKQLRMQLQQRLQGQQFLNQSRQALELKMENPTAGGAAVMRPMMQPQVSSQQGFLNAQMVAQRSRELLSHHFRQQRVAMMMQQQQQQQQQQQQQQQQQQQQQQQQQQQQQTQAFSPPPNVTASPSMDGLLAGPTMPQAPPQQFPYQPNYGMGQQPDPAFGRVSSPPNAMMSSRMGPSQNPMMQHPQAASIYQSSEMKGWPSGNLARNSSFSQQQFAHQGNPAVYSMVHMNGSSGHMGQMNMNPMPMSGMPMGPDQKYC

[3] = target: Peroxisome proliferator-activated receptor gamma/Nuclear receptor coactivator 2 (Homo sapiens, UniProt P37231); type: functional;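 further: agonist potency for raising coactivator recruitment to the receptor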
Large T antigen = Large T antigen (Simian virus 40, UniProt P03070); type: functional, Betapolyomavirus macacae;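 further: Confirmatory-stage PubChem screen for compounds that inhibit SV40 T antigen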
Sequence of Large T antigen (P03070 whole entry): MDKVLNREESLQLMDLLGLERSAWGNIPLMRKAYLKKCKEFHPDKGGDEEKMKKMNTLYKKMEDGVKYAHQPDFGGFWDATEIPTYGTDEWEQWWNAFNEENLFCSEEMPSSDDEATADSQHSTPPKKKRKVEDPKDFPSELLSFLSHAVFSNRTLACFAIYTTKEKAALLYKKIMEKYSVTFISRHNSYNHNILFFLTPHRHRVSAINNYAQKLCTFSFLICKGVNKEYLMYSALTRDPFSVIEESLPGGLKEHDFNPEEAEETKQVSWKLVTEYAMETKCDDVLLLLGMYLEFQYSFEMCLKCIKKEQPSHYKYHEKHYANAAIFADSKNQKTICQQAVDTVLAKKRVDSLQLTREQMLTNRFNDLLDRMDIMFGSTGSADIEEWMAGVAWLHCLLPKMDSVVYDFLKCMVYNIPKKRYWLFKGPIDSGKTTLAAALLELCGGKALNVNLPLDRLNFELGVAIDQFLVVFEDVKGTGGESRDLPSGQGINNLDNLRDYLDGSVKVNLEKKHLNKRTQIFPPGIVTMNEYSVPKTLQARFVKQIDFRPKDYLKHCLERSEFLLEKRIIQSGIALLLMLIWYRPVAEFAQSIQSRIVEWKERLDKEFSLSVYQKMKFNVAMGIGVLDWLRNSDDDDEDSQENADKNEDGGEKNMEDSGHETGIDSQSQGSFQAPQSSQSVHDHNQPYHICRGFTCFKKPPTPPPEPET

[4] = target: Peroxisome proliferator-activated receptor gamma/Nuclear receptor coactivator 1 (Homo sapiens, UniProt P37231); type: functional;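 further: agonist potency as compounds enhance coactivator SRC-1 recruitment to PPARgamma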
[5] = target: T2, Rac GTPase-activating protein 1 (Homo sapiens, UniProt Q9H0H5); test: MgcRacGAP GTPase-activating activity inhibitors, confirmation, biochemical, ADP Hunter fluorescence, primary and confirmatory (AID 624330); type: functional
T2 sequence (Q9H0H5 whole entry): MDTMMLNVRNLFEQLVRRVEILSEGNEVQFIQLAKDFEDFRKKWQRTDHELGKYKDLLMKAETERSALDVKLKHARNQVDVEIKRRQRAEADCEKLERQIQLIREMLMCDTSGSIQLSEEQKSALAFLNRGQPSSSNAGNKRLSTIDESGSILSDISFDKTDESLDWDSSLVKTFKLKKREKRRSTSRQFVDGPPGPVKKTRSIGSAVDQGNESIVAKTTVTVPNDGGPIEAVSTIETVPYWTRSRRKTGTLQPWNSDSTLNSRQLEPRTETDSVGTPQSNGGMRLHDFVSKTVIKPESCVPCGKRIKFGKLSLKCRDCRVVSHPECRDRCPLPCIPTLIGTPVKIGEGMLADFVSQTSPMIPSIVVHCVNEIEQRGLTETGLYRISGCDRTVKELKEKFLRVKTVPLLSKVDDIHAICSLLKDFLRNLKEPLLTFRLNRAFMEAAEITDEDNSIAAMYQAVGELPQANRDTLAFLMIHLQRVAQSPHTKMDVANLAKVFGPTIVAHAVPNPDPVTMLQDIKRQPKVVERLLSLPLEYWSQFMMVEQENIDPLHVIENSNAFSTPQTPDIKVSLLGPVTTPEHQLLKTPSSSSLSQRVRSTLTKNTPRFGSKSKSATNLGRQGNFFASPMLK

cells [6] = type: functional, cell-based
cells [7] = type: functional, cell-based; remark: listed apart in the source
Paired box protein Pax-8 = Paired box protein Pax-8 (Homo sapiens, UniProt Q06710); test: inhibitors of PAX8-driven TPO luciferase reporter, dose response, RMG-I cells, cherry-pick (AID 687027); type: functional, cell-based;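 further: luciferase reporter driven by Pax8 target thyroperoxidase promoter measured by SteadyGlo luminescence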
Sequence of Paired box protein Pax-8 (Q06710 whole entry): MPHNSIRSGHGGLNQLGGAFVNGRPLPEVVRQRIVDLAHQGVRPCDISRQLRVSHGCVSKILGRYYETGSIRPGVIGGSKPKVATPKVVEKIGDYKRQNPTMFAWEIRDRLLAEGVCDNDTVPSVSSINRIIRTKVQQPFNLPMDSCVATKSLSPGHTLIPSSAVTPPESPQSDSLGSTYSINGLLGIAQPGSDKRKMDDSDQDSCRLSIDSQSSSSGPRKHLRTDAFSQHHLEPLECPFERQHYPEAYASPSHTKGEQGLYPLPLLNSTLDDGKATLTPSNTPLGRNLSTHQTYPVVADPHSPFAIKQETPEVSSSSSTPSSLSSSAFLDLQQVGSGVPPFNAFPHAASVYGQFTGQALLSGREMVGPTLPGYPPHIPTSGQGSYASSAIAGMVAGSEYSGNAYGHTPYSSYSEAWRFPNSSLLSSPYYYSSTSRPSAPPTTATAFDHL

[8] = NIH:OVCAR-3 ovarian cancer cell cytotoxicity, dose response, PAX8 inhibitor project, plate reader, dry powder samples (AID 743044); type: functional, cell-based
[9] = cytotoxicity in OVCAR8 ovarian cancer cells, dose response, PAX8 project, cell-based, plate reader, dry powder samples (AID 743197); type: functional; details: OVCAR-8
[10] = IGROV1 ovarian cancer cell cytotoxicity, dose response, PAX8 inhibitor project, plate reader, dry powder samples (AID 743043); type: functional, cell-based; details: IGROV-1
[11] = A2780 ovarian cancer cell cytotoxicity, dose response, cytotoxicity control, plate reader, dry powder samples (AID 743046); type: functional, cell-based
[12] = target: T3, Carboxy-terminal domain RNA polymerase II polypeptide A small phosphatase 1 (Homo sapiens, UniProt Q9GZU7); test: inhibitors of CTDSP1, concentration-response testing, biochemical assay, absorbance-based, actives from ultra-high-throughput screening (AID 540297); type: functional
T3 sequence (Q9GZU7 whole entry): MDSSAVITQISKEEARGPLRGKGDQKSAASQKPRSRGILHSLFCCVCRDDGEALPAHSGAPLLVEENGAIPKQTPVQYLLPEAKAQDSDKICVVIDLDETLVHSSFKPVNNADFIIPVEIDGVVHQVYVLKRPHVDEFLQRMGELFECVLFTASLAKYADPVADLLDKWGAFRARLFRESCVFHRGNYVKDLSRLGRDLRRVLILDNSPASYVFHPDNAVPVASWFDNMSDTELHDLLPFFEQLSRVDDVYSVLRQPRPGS

[13] = target: Induced myeloid leukemia cell differentiation protein Mcl-1 (Homo sapiens, UniProt Q07820); type: functional
Sequence of Induced myeloid leukemia cell differentiation protein Mcl-1 (Q07820 whole entry): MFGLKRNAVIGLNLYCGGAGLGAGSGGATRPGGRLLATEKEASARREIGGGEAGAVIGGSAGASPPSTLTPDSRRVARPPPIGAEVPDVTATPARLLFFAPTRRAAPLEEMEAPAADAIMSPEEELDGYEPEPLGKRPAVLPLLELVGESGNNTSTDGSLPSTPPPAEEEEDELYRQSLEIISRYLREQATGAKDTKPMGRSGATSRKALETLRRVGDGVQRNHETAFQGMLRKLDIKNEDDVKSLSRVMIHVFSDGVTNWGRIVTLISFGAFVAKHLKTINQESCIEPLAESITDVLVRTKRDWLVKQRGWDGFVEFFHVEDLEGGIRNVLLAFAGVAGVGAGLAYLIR

Sequence of Beta-galactosidase (Q8VNN2 whole entry): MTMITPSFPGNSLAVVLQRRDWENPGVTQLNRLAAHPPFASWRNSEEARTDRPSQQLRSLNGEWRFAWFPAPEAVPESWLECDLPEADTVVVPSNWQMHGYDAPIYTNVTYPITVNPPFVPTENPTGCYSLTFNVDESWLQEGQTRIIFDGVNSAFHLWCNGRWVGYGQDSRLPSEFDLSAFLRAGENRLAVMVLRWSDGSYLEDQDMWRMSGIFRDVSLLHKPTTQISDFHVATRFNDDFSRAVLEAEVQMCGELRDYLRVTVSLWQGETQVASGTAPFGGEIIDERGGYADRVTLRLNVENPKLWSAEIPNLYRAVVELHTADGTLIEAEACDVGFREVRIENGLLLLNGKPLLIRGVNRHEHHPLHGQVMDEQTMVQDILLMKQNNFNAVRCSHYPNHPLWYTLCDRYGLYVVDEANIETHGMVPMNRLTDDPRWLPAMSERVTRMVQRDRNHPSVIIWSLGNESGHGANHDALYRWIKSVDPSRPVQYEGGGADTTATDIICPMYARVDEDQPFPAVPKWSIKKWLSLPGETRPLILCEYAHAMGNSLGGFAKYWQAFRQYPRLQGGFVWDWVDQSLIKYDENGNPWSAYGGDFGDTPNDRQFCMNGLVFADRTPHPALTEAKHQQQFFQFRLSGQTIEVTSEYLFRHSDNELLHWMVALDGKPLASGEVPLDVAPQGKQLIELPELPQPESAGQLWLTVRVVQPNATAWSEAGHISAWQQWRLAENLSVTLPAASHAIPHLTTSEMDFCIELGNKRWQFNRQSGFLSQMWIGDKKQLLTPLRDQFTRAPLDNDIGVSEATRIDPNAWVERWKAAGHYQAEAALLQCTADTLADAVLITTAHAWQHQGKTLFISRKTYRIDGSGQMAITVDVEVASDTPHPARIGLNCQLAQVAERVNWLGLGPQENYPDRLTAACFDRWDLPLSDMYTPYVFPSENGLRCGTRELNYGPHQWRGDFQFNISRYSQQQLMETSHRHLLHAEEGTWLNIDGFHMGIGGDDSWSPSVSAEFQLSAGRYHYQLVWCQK

## COC(=O)c1ccc(/N=c2\sc(C(=O)OC)cc(=O)n2C)cc1
Beta-galactosidase
  IC50: > 80 µM (inactive)

## COC(=O)c1c(C(=O)OC)c(-c2cccc(F)c2)n2c1C[S+]([O-])C2 (stereo not given)
[1]
  AC50: 0.659 µM (active)

## O=C(/C=C/c1ccc(Cl)cc1)N1CCN(CCN2C(=O)c3cccc4cccc(c34)C2=O)CC1
Beta-galactosidase
  IC50: > 80 µM (inactive)

## O=C(N/N=C/c1ccc(O)cc1)c1csc2ccccc12
Cytochrome P450 2C9
  AC50: inconclusive
[2]
  EC50: > 79.4 µM (not active)
[3]
  EC50: > 79.4 µM (not active)
Large T antigen
  IC50: 13.3 µM (active)
[4]
  EC50: > 79.4 µM (not active)
[5]
  IC50: 42.3 µM (active)

## COc1ccc(-c2nc3ccc(Cl)cn3c2Cc2ccccc2)cc1OC
[1]
  AC50: 10.6 µM (active)

## CCOC(=O)[C@]12CCC=C1N(CCC1=CCCCC1)C(=O)[C@H](CC(=O)NCCc1ccccc1OC)C2
Cells [6]
  IC50: > 29.9 µM (inactive)
Cells [7]
  EC50: > 29.9 µM (inactive)

## C[C@@H]1CCCCO[C@@H](CN(C)S(=O)(=O)c2ccc(Cl)cc2)[C@H](C)CN([C@H](C)CO)C(=O)c2cc(NS(=O)(=O)c3ccc(Cl)cc3)ccc2O1
Paired box protein Pax-8
  AC50: 3.27 µM (active)
[8]
  AC50: 17.7 µM (active)
[9]
  AC50: 19.5 µM (active)
[10]
  AC50: 21.7 µM (active)
[11]
  AC50: 55.8 µM (active)

## C[C@@H]1CN([C@H](C)CO)C(=O)c2cc(NS(=O)(=O)c3cccs3)ccc2O[C@@H](C)CCCCO[C@@H]1CN(C)Cc1ccc(Cl)c(Cl)c1
Paired box protein Pax-8
  AC50: 4.91 µM (active)
[8]
  AC50: 16.9 µM (active)
[9]
  AC50: 20.5 µM (active)
[10]
  AC50: 26.5 µM (active)
[11]
  AC50: 27.8 µM (active)

## COc1ccc(/C=N/N=C/c2cnc(O)c(C#N)c2Nc2ccccc2)cc1
Beta-galactosidase
  IC50: > 80 µM (inactive)

## NC(=S)n1[nH]c(-c2ccc([N+](=O)[O-])cc2)c(/N=N/c2ccccc2[N+](=O)[O-])c1=O
[12]
  IC50: 1.46 µM (active)
[13]
  IC50: 23.2 µM (active)
